Test results reported in article PMC3493683 (Journal of medicinal chemistry, 2012).

Biological target: recombinant β-secretase (memapsin 2, BACE 1) (Homo sapiens, UniProt P56817)
Assay: BACE 1 inhibitory activity against recombinant β-secretase
Format: biochemical
Conditions: for BACE 1 inhibitory activity (in words): recombinant β-secretase

recombinant β-secretase (memapsin 2, BACE 1), sequence (P56817 46-501): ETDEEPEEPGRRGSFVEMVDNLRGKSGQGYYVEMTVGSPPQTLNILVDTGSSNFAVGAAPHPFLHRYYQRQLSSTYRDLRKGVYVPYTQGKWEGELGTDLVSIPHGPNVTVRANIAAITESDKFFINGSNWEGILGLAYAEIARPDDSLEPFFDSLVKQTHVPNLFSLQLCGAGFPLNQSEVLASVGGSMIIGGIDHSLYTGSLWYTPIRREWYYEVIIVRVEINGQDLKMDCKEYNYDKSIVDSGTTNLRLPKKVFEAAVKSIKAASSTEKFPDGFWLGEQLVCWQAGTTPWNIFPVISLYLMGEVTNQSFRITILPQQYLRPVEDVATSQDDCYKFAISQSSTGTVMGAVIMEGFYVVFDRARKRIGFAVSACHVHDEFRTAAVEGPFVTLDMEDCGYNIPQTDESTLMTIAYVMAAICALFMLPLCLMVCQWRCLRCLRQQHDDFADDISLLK

Structure (SMILES)	BACE 1 inhibitory activity (in words)	further results
CC(C)CN(C)C(=O)[C@@H](NC[C@H](Cc1ccccc1)NC(=O)c1cc(C(=O)N[C@H](C)c2ccccc2)cc(N(C)S(C)(=O)=O)c1)[C@H](C)O [Inhibitor 7]	abolished all BACE 1 inhibitory activity	–
CC(C)CNC[C@@H](NC[C@H](Cc1ccccc1)NC(=O)c1cc(C(=O)N[C@H](C)c2ccccc2)cc(N(C)S(C)(=O)=O)c1)[C@H](C)O [Inhibitor 9]	total loss in potency	–
CCC[C@H](O)[C@H](NC[C@H](Cc1ccccc1)NC(=O)c1cc2c3c(c1)c(CC)cn3CCS(=O)(=O)N2C)C(=O)NCC(C)C [Inhibitor 19]	–	improvement in the potency (BACE 1) (compared with inhibitor 18): around 18 fold
CCC[C@H](O)[C@H](NC[C@H](Cc1ccccc1)NC(=O)c1cc2c3c(c1)c(CC)cn3CC(C)(C)S(=O)(=O)N2C)C(=O)NCC(C)C [Inhibitor 20]	–	potency enhancement (BACE 1) (over unsubstituted inhibitor 19): > 10 fold
